Results as given in patent US20170247465A1, “COMBINATION THERAPY FOR TREATMENT OF CANCER” (OncoMed Pharmaceuticals, Inc., priority 2014, published 2017).

System: OMP-OV38 tumors
Assay: Histology of treated OMP-OV38 tumors
Assay type: in vivo, NOD/SCID mice
Conditions: paclitaxel alone; data not shown
Description: The treated OMP-OV38 tumors were analyzed by histology.

For `CC(=O)O[C@H]1C(=O)[C@@]2(C)[C@H]([C@H](OC(=O)c3ccccc3)[C@]3(O)C[C@H](OC(=O)[C@H](O)[C@@H](NC(=O)c4ccccc4)c4ccccc4)C(C)=C1C3(C)C)[C@]1(OC(C)=O)CO[C@@H]1C[C@@H]2O` [paclitaxel], the “histology of the tumors” value was “did not show these effects”.
